Assay results from US20250163104A1, “MACROCYCLIC IMMUNOMODULATORS” (priority 2021, published 2025).
Where a SMILES comes first, the peptide text is derived from it. Bridges are numbered along the chain shown (N, C = ends). [ ]: non-standard residue; d: D form. The star is where a group is joined. ξ: configuration not given here. Phe(4-COOH) = N[C@@H](Cc1ccc(C(=O)O)cc1)C(=O)O; Bip = N[C@@H](Cc1ccc(-c2ccccc2)cc1)C(=O)O; Phe(3-Me) = Cc1cccc(C[C@H](N)C(=O)O)c1; Val(3-OH) = CC(C)(O)[C@H](N)C(=O)O; 4Pal = N[C@@H](Cc1ccncc1)C(=O)O; Cha = N[C@@H](CC1CCCCC1)C(=O)O; Ile(3ξ) = CCC(C)[C@H](N)C(=O)O; Tle = CC(C)(C)[C@H](N)C(=O)O; Carboxymethyl = O=C(O)C*; Orn = NCCC[C@H](N)C(=O)O; Dab = NCC[C@H](N)C(=O)O; Aib = CC(C)(N)C(=O)O

Target: T1, human PD-1 / PD-L1-Ig binding on Jurkat cell line over-expressing human PD-1 (Jurkat-PD-1) (Homo sapiens, UniProt Q15116)
T1 construct: expressed in transfected cells; host or cells: Jurkat
Assay: Jurkat-PD-1 Cell Binding High-Content Screening Assay (CBA)
Format: cell-based
Conditions: Jurkat-PD-1 cells, PE-labeled PD-L1-Ig 20 nM final; read-out: Jurkat HPD1_PDL1 IC50
How it was run: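 Cell-bound PE-labeled PD-L1-Ig (20 nM final, 1 h) measured by high-content imaging after fixation and Hoechst 33342 counterstain. Compound was applied first for 2 h at 37° C. to Jurkat cells over-expressing human PD-1 in DMEM with 10% FCS.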

T1 sequence (Q15116 25-288): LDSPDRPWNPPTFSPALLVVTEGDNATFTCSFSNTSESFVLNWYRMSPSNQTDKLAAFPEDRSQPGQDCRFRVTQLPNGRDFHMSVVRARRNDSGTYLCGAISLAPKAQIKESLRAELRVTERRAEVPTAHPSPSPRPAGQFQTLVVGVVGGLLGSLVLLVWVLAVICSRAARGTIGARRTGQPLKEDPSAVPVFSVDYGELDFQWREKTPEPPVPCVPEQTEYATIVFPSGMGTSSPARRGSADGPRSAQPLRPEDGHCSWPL

Row | Compound | IC50 [nM]
1 | Cc1cccc(C[C@@H]2NC(=O)[C@H](CC(=O)O)NC(=O)[C@H](Cc3ccc(C(=O)O)cc3)NC(=O)[C@H](Cc3ccncc3)NC(=O)CSC[C@@H](C(=O)N[C@@H](CCN)C(N)=O)NC(=O)[C@H]([C@@H](C)O)NC(=O)[C@H](C(C)C)NC(=O)[C@H](CC3CCCCC3)NC(=O)[C@H](CCN)NC(=O)[C@@H](CC(C)C)NC(=O)[C@H](CCCN)NC(=O)[C@H](Cc3ccc(O)cc3)NC(=O)[C@H](Cc3ccc(-c4ccccc4)cc3)NC(=O)[C@H](C(C)C)NC2=O)c1 [Compound 2292] ({CH2CO}-[4Pal][Phe(4-COOH)]D[Phe(3-Me)]V[Bip]Y[Orn][dL][Dab][Cha]VTC[Dab]-NH2; thioether N-14) | 18.4
2 | CCC(C)[C@@H]1NC(=O)[C@H](Cc2ccc(-c3ccccc3)cc2)NC(=O)[C@H](C(C)C)NC(=O)[C@H](Cc2cccc(C)c2)NC(=O)[C@H](CC(=O)O)NC(=O)[C@H](Cc2ccc(C(=O)O)cc2)NC(=O)[C@H](Cc2ccncc2)NC(=O)CSC[C@@H](C(=O)N[C@@H](CC(N)=O)C(N)=O)NC(=O)[C@H](CO)NC(=O)[C@H](C(C)C)NC(=O)[C@H](CC2CCCCC2)NC(=O)[C@H](CCN)NC(=O)[C@@H](CC(C)C)NC(=O)[C@H](CCCN)NC1=O (stereo partly drawn) [Compound 2298] ({CH2CO}-[4Pal][Phe(4-COOH)]D[Phe(3-Me)]V[Bip][Ile(3ξ)][Orn][dL][Dab][Cha]VSCN-NH2; thioether N-14) | 15.5
3 | CCC(C)[C@@H]1NC(=O)[C@H](Cc2ccc(-c3ccccc3)cc2)NC(=O)[C@H](C(C)C)NC(=O)[C@H](Cc2cccc(C)c2)NC(=O)[C@H](CC(=O)O)NC(=O)[C@H](Cc2ccc(C(=O)O)cc2)NC(=O)[C@H](Cc2ccncc2)NC(=O)CSC[C@@H](C(=O)N[C@@H](CC(N)=O)C(N)=O)NC(=O)[C@H]([C@@H](C)O)NC(=O)[C@H](C(C)C)NC(=O)[C@H](CC2CCCCC2)NC(=O)[C@H](CCN)NC(=O)[C@@H](CC(C)C)NC(=O)[C@H](CCCN)NC1=O (some centres unmarked) [Compound 2299] | 14.4
4 | CCC(C)[C@@H]1NC(=O)[C@H](Cc2ccc(-c3ccccc3)cc2)NC(=O)[C@H](C(C)C)NC(=O)[C@H](Cc2cccc(C)c2)NC(=O)[C@H](CC(=O)O)NC(=O)[C@H](Cc2ccc(C(=O)O)cc2)NC(=O)[C@H](Cc2ccncc2)NC(=O)CSC[C@@H](C(=O)N[C@H](CC(N)=O)C(N)=O)NC(=O)[C@H](CO)NC(=O)[C@H](C(C)C)NC(=O)[C@H](CC2CCCCC2)NC(=O)[C@H](CCN)NC(=O)[C@@H](CC(C)C)NC(=O)[C@H](CCCN)NC1=O (stereo partly drawn) [Compound 2300] ({CH2CO}-[4Pal][Phe(4-COOH)]D[Phe(3-Me)]V[Bip][Ile(3ξ)][Orn][dL][Dab][Cha]VSC[dN]-NH2; thioether N-14) | 13.4
5 | CCC(C)[C@@H]1NC(=O)[C@H](Cc2ccc(-c3ccccc3)cc2)NC(=O)[C@H](C(C)C)NC(=O)[C@H](Cc2cccc(C)c2)NC(=O)[C@H](CC(=O)O)NC(=O)[C@H](Cc2ccc(C(=O)O)cc2)NC(=O)[C@H](Cc2ccncc2)NC(=O)CSC[C@@H](C(=O)N[C@@H](CCN)C(N)=O)NC(=O)[C@H]([C@@H](C)O)NC(=O)[C@H](C(C)C)NC(=O)[C@H](CC2CCCCC2)NC(=O)[C@H](CCN)NC(=O)[C@@H](CC(C)C)NC(=O)[C@H](CCCN)NC1=O (some centres unmarked) [Compound 2301] | 14.8
6 | Cc1cccc(C[C@@H]2NC(=O)[C@H](CC(=O)O)NC(=O)[C@H](Cc3ccc(C(=O)O)cc3)NC(=O)[C@H](Cc3ccncc3)NC(=O)CSC[C@@H](C(=O)N[C@@H](CC(N)=O)C(N)=O)NC(=O)[C@H](CCC(=O)O)NC(=O)[C@H](C(C)C)NC(=O)[C@H](CC3CCCCC3)NC(=O)[C@H](CCN)NC(=O)[C@@H](CC(C)C)NC(=O)[C@H](CCCN)NC(=O)[C@H](Cc3ccc(OCC(=O)O)cc3)NC(=O)[C@H](Cc3ccc(-c4ccccc4)cc3)NC(=O)[C@H](Cc3ccc(OCC(=O)O)cc3)NC2=O)c1 [Compound 2304] ({CH2CO}-[4Pal][Phe(4-COOH)]D[Phe(3-Me)]Y(Carboxymethyl)[Bip]Y(Carboxymethyl)[Orn][dL][Dab][Cha]VECN-NH2; thioether N-14) | 15

The next molecules have a lower IC50 than those just listed; values first:

Row | IC50 [nM] | Compound
7 | 5.2 | Cc1cccc(C[C@@H]2NC(=O)[C@H](CC(=O)O)NC(=O)[C@H](Cc3ccc(C(=O)O)cc3)NC(=O)[C@H](Cc3ccncc3)NC(=O)CSC[C@@H](C(=O)N[C@@H](CCN)C(N)=O)NC(=O)[C@H](CO)NC(=O)[C@H](C(C)(C)O)NC(=O)[C@H](CC3CCCCC3)NC(=O)[C@H](CCN)NC(=O)[C@@H](CC(C)C)NC(=O)[C@H](CCCN)NC(=O)[C@H](Cc3ccc(OCC(=O)O)cc3)NC(=O)[C@H](Cc3ccc(-c4ccccc4)cc3)NC(=O)[C@H](Cc3ccc(OCC(=O)O)cc3)NC2=O)c1 [Compound 2293] ({CH2CO}-[4Pal][Phe(4-COOH)]D[Phe(3-Me)]Y(Carboxymethyl)[Bip]Y(Carboxymethyl)[Orn][dL][Dab][Cha][Val(3-OH)]SC[Dab]-NH2; thioether N-14)
8 | 9.4 | Cc1cccc(C[C@@H]2NC(=O)[C@H](CC(=O)O)NC(=O)[C@H](Cc3ccc(C(=O)O)cc3)NC(=O)[C@H](Cc3ccncc3)NC(=O)CSC[C@@H](C(=O)N[C@@H](CCN)C(N)=O)NC(=O)[C@H](CO)NC(=O)[C@H](C(C)(C)C)NC(=O)[C@H](CC3CCCCC3)NC(=O)[C@H](CCN)NC(=O)[C@@H](CC(C)C)NC(=O)[C@H](CCCN)NC(=O)[C@H](Cc3ccc(OCC(=O)O)cc3)NC(=O)[C@H](Cc3ccc(-c4ccccc4)cc3)NC(=O)[C@H](Cc3ccc(OCC(=O)O)cc3)NC2=O)c1 [Compound 2294] ({CH2CO}-[4Pal][Phe(4-COOH)]D[Phe(3-Me)]Y(Carboxymethyl)[Bip]Y(Carboxymethyl)[Orn][dL][Dab][Cha][Tle]SC[Dab]-NH2; thioether N-14)
9 | 11.7 | Cc1cccc(C[C@@H]2NC(=O)[C@H](CC(=O)O)NC(=O)[C@H](Cc3ccc(C(=O)O)cc3)NC(=O)[C@H](Cc3ccncc3)NC(=O)CSC[C@@H](C(=O)N[C@@H](CO)C(N)=O)NC(=O)[C@H](CO)NC(=O)[C@H](C(C)C)NC(=O)[C@H](CC3CCCCC3)NC(=O)[C@H](CCN)NC(=O)[C@@H](CC(C)C)NC(=O)[C@H](CCCN)NC(=O)[C@H](Cc3ccc(OCC(=O)O)cc3)NC(=O)[C@H](Cc3ccc(-c4ccccc4)cc3)NC(=O)[C@H](Cc3ccc(OCC(=O)O)cc3)NC2=O)c1 [Compound 2295] ({CH2CO}-[4Pal][Phe(4-COOH)]D[Phe(3-Me)]Y(Carboxymethyl)[Bip]Y(Carboxymethyl)[Orn][dL][Dab][Cha]VSCS-NH2; thioether N-14)
10 | 8.8 | Cc1cccc(C[C@@H]2NC(=O)[C@H](CC(=O)O)NC(=O)[C@H](Cc3ccc(C(=O)O)cc3)NC(=O)[C@H](Cc3ccncc3)NC(=O)CSC[C@@H](C(=O)NC(C)(C)C(N)=O)NC(=O)[C@H](CO)NC(=O)[C@H](C(C)C)NC(=O)[C@H](CC3CCCCC3)NC(=O)[C@H](CCN)NC(=O)[C@@H](CC(C)C)NC(=O)[C@H](CCCN)NC(=O)[C@H](Cc3ccc(OCC(=O)O)cc3)NC(=O)[C@H](Cc3ccc(-c4ccccc4)cc3)NC(=O)[C@H](Cc3ccc(OCC(=O)O)cc3)NC2=O)c1 [Compound 2296] ({CH2CO}-[4Pal][Phe(4-COOH)]D[Phe(3-Me)]Y(Carboxymethyl)[Bip]Y(Carboxymethyl)[Orn][dL][Dab][Cha]VSC[Aib]-NH2; thioether N-14)
11 | 10.4 | CCC(C)[C@@H]1NC(=O)[C@H](Cc2ccc(-c3ccccc3)cc2)NC(=O)[C@H](C(C)C)NC(=O)[C@H](Cc2cccc(C)c2)NC(=O)[C@H](CC(=O)O)NC(=O)[C@H](Cc2ccc(C(=O)O)cc2)NC(=O)[C@H](Cc2ccncc2)NC(=O)CSC[C@@H](C(=O)N[C@@H](CC(N)=O)C(N)=O)NC(=O)[C@H]([C@@H](C)O)NC(=O)[C@H](C(C)C)NC(=O)[C@H](CC2CCCCC2)NC(=O)[C@H](CCN)NC(=O)[C@@H](CC(C)C)NC(=O)[C@H](CCCN)NC1=O (some centres unmarked) [Compound 2297]
12 | 4 | Cc1cccc(C[C@@H]2NC(=O)[C@H](CC(=O)O)NC(=O)[C@H](Cc3ccc(C(=O)O)cc3)NC(=O)[C@H](Cc3ccncc3)NC(=O)CSC[C@@H](C(=O)N[C@@H](CC(N)=O)C(N)=O)NC(=O)[C@H]([C@@H](C)O)NC(=O)[C@H](C(C)C)NC(=O)[C@H](CC3CCCCC3)NC(=O)[C@H](CCN)NC(=O)[C@@H](CC(C)C)NC(=O)[C@H](CCCN)NC(=O)[C@H](Cc3ccc(OCC(=O)O)cc3)NC(=O)[C@H](Cc3ccc(-c4ccccc4)cc3)NC(=O)[C@H](Cc3ccc(OCC(=O)O)cc3)NC2=O)c1 [Compound 2302] ({CH2CO}-[4Pal][Phe(4-COOH)]D[Phe(3-Me)]Y(Carboxymethyl)[Bip]Y(Carboxymethyl)[Orn][dL][Dab][Cha]VTCN-NH2; thioether N-14)
13 | 5.3 | Cc1cccc(C[C@@H]2NC(=O)[C@H](CC(=O)O)NC(=O)[C@H](Cc3ccc(C(=O)O)cc3)NC(=O)[C@H](Cc3ccncc3)NC(=O)CSC[C@@H](C(=O)N[C@@H](CC(N)=O)C(N)=O)NC(=O)[C@H](CO)NC(=O)[C@H](C(C)C)NC(=O)[C@H](CC3CCCCC3)NC(=O)[C@H](CCN)NC(=O)[C@@H](CC(C)C)NC(=O)[C@H](CCCN)NC(=O)[C@H](Cc3ccc(OCC(=O)O)cc3)NC(=O)[C@H](Cc3ccc(-c4ccccc4)cc3)NC(=O)[C@H](Cc3ccc(OCC(=O)O)cc3)NC2=O)c1 [Compound 2303] ({CH2CO}-[4Pal][Phe(4-COOH)]D[Phe(3-Me)]Y(Carboxymethyl)[Bip]Y(Carboxymethyl)[Orn][dL][Dab][Cha]VSCN-NH2; thioether N-14)
14 | 10.2 | Cc1cccc(C[C@@H]2NC(=O)[C@H](CC(=O)O)NC(=O)[C@H](Cc3ccc(C(=O)O)cc3)NC(=O)[C@H](Cc3ccncc3)NC(=O)CSC[C@@H](C(=O)N[C@@H](CC(N)=O)C(N)=O)NC(=O)[C@H](CCC(N)=O)NC(=O)[C@H](C(C)C)NC(=O)[C@H](CC3CCCCC3)NC(=O)[C@H](CCN)NC(=O)[C@@H](CC(C)C)NC(=O)[C@H](CCCN)NC(=O)[C@H](Cc3ccc(OCC(=O)O)cc3)NC(=O)[C@H](Cc3ccc(-c4ccccc4)cc3)NC(=O)[C@H](Cc3ccc(OCC(=O)O)cc3)NC2=O)c1 [Compound 2305] ({CH2CO}-[4Pal][Phe(4-COOH)]D[Phe(3-Me)]Y(Carboxymethyl)[Bip]Y(Carboxymethyl)[Orn][dL][Dab][Cha]VQCN-NH2; thioether N-14)
